Test results taken from US11198713B2, “Agents modulating beta-catenin functions and methods thereof” (FOG PHARMACEUTICALS, INC., priority 2017, dated 2021).

These compounds were tested against T1, full-length beta-catenin (Axin site) (Homo sapiens, UniProt P35222) (assay: Competition fluorescence polarization assay (Axin site probe)). Settings: competition fluorescence polarization, Table 2; read-out: in vitro FP EC50.
T1 construct: 15 nM full-length beta-catenin, 20 nM FITC labeled peptide in buffer
T1 sequence (P35222 1-781): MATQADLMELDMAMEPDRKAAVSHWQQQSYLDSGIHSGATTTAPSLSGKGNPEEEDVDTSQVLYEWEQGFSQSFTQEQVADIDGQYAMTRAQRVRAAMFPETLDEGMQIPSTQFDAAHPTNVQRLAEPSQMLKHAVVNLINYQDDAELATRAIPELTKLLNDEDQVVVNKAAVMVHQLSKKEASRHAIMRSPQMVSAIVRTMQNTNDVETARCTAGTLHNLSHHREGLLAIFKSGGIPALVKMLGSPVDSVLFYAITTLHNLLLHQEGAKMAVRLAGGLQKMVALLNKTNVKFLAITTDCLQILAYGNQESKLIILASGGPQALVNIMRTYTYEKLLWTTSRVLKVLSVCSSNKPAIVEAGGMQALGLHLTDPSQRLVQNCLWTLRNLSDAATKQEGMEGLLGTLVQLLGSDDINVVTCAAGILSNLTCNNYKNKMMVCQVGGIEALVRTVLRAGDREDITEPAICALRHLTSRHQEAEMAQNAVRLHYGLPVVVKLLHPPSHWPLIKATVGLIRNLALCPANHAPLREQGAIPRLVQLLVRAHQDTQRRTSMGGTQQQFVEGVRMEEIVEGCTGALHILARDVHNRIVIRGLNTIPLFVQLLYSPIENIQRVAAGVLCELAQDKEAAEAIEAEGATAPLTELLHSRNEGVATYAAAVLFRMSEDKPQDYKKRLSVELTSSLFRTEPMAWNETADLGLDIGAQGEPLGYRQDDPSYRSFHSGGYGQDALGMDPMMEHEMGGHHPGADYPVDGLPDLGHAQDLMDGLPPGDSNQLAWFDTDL
Assay type: binding
Outline: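 Competition FP: 15 nM full-length β-catenin pre-incubated 5 min with 20 nM FITC-labelled stapled Axin-site peptide, then titrated peptide added (3-fold series from 5 μM) for 15 min in the dark. Buffer 50 mM Tris pH 8.0, 250 mM NaCl, 2% glycerol, 0.5 mM EDTA; duplicate reads.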

| Structure (SMILES) | EC50 |
| --- | --- |
| CC[C@H](C)[C@@H]1NC(=O)[C@](C)(NC(=O)[C@H](CCC(N)=O)NC(=O)[C@@H]2CCCN2C(C)=O)CCCC=CCN2CC[C@@](C(=O)N[C@@H](Cc3c[nH]cn3)C(=O)N[C@H](C(=O)N[C@@H](CCCNC(=N)N)C(=O)N[C@@H](CCCNC(=N)N)C(=O)N[C@H](C(=O)N[C@@H](Cc3c[nH]c4ccccc34)C(=O)N[C@@H](CCCNC(=N)N)C(N)=O)C(C)C)C(C)C)(C2)NC(=O)[C@H](CC(=O)O)NC(=O)[C@H](CC(C)C)NC1=O (single isomer, unassigned) [FP0758a, Ac-P-Q-R5-I-L-D-MB-H-V-R-R-V-W-R-NH2] | > 5000 nM |
| CC[C@H](C)[C@@H]1NC(=O)[C@](C)(NC(=O)[C@H](CCC(N)=O)NC(=O)[C@@H]2CCCN2C(C)=O)CCCC=CCOC(=O)N2CC[C@@](C(=O)N[C@@H](Cc3c[nH]cn3)C(=O)N[C@H](C(=O)N[C@@H](CCCNC(=N)N)C(=O)N[C@@H](CCCNC(=N)N)C(=O)N[C@H](C(=O)N[C@@H](Cc3c[nH]c4ccccc34)C(=O)N[C@@H](CCCNC(=N)N)C(N)=O)C(C)C)C(C)C)(C2)NC(=O)[C@H](CC(=O)O)NC(=O)[C@H](CC(C)C)NC1=O (single isomer, unassigned) [FP0758c, Ac-P-Q-R5-I-L-D-MB-H-V-R-R-V-W-R-NH2] | 500 to 5000 nM |
| CC[C@H](C)[C@@H]1NC(=O)[C@@](C)(NC(=O)[C@H](CCC(N)=O)NC(=O)[C@@H]2CCCN2C(C)=O)CCCCC=CCOC(=O)N2CC[C@@](C(=O)N[C@@H](Cc3c[nH]cn3)C(=O)N[C@H](C(=O)N[C@@H](CCCNC(=N)N)C(=O)N[C@@H](CCCNC(=N)N)C(=O)N[C@H](C(=O)N[C@@H](Cc3c[nH]c4ccccc34)C(=O)N[C@@H](CCCNC(=N)N)C(N)=O)C(C)C)C(C)C)(C2)NC(=O)[C@H](CC(=O)O)NC(=O)[C@H](CC(C)C)NC1=O (single isomer, unassigned) [FP0761c, Ac-P-Q-S6-I-L-D-MB-H-V-R-R-V-W-R-NH2] | 100 to 500 nM |
| CC[C@H](C)[C@@H]1NC(=O)[C@@](C)(NC(=O)[C@H](CCC(N)=O)NC(=O)[C@@H]2CCCN2C(C)=O)CCCCCC=CCN2CC[C@@](C(=O)N[C@@H](Cc3c[nH]cn3)C(=O)N[C@H](C(=O)N[C@@H](CCCNC(=N)N)C(=O)N[C@@H](CCCNC(=N)N)C(=O)N[C@H](C(=O)N[C@@H](Cc3c[nH]c4ccccc34)C(=O)N[C@@H](CCCNC(=N)N)C(N)=O)C(C)C)C(C)C)(C2)NC(=O)[C@H](CC(=O)O)NC(=O)[C@H](CC(C)C)NC1=O (single isomer, unassigned) [FP0763a, Ac-P-Q-S7-I-L-D-MB-H-V-R-R-V-W-R-NH2] | 500 to 5000 nM |
| CC[C@H](C)[C@@H]1NC(=O)[C@@](C)(NC(=O)[C@H](CCC(N)=O)NC(=O)[C@@H]2CCCN2C(C)=O)CCCCCC=CCOC(=O)N2CC[C@@](C(=O)N[C@@H](Cc3c[nH]cn3)C(=O)N[C@H](C(=O)N[C@@H](CCCNC(=N)N)C(=O)N[C@@H](CCCNC(=N)N)C(=O)N[C@H](C(=O)N[C@@H](Cc3c[nH]c4ccccc34)C(=O)N[C@@H](CCCNC(=N)N)C(N)=O)C(C)C)C(C)C)(C2)NC(=O)[C@H](CC(=O)O)NC(=O)[C@H](CC(C)C)NC1=O (single isomer, unassigned) [FP0763c, Ac-P-Q-S7-I-L-D-MB-H-V-R-R-V-W-R-NH2] | 100 to 500 nM |
| CC[C@H](C)[C@@H]1NC(=O)[C@](C)(NC(=O)[C@H](CCC(N)=O)NC(=O)[C@@H]2CCCN2C(C)=O)CCCCC=CCN2CC[C@](C(=O)N[C@@H](Cc3c[nH]cn3)C(=O)N[C@H](C(=O)N[C@@H](CCCNC(=N)N)C(=O)N[C@@H](CCCNC(=N)N)C(=O)N[C@H](C(=O)N[C@@H](Cc3c[nH]c4ccccc34)C(=O)N[C@@H](CCCNC(=N)N)C(N)=O)C(C)C)C(C)C)(C2)NC(=O)[C@H](CC(=O)O)NC(=O)[C@H](CC(C)C)NC1=O (single isomer, unassigned) [FP0767a, Ac-P-Q-R6-I-L-D-MC-H-V-R-R-V-W-R-NH2] | 500 to 5000 nM |
| CC[C@H](C)[C@@H]1NC(=O)[C@](C)(NC(=O)[C@H](CCC(N)=O)NC(=O)[C@@H]2CCCN2C(C)=O)CCCCC=CCOC(=O)N2CC[C@](C(=O)N[C@@H](Cc3c[nH]cn3)C(=O)N[C@H](C(=O)N[C@@H](CCCNC(=N)N)C(=O)N[C@@H](CCCNC(=N)N)C(=O)N[C@H](C(=O)N[C@@H](Cc3c[nH]c4ccccc34)C(=O)N[C@@H](CCCNC(=N)N)C(N)=O)C(C)C)C(C)C)(C2)NC(=O)[C@H](CC(=O)O)NC(=O)[C@H](CC(C)C)NC1=O (single isomer, unassigned) [FP0767c, Ac-P-Q-R6-I-L-D-MC-H-V-R-R-V-W-R-NH2] | 100 to 500 nM |
| CC[C@H](C)[C@@H]1NC(=O)[C@](C)(NC(=O)[C@H](CCC(N)=O)NC(=O)[C@@H]2CCCN2C(C)=O)CCCCCC=CCN2CC[C@](C(=O)N[C@@H](Cc3c[nH]cn3)C(=O)N[C@H](C(=O)N[C@@H](CCCNC(=N)N)C(=O)N[C@@H](CCCNC(=N)N)C(=O)N[C@H](C(=O)N[C@@H](Cc3c[nH]c4ccccc34)C(=O)N[C@@H](CCCNC(=N)N)C(N)=O)C(C)C)C(C)C)(C2)NC(=O)[C@H](CC(=O)O)NC(=O)[C@H](CC(C)C)NC1=O (single isomer, unassigned) [FP0768a, Ac-P-Q-R7-I-L-D-MC-H-V-R-R-V-W-R-NH2] | > 5000 nM |
| CC[C@H](C)[C@@H]1NC(=O)[C@](C)(NC(=O)[C@H](CCC(N)=O)NC(=O)[C@@H]2CCCN2C(C)=O)CCCCCC=CCOC(=O)N2CC[C@](C(=O)N[C@@H](Cc3c[nH]cn3)C(=O)N[C@H](C(=O)N[C@@H](CCCNC(=N)N)C(=O)N[C@@H](CCCNC(=N)N)C(=O)N[C@H](C(=O)N[C@@H](Cc3c[nH]c4ccccc34)C(=O)N[C@@H](CCCNC(=N)N)C(N)=O)C(C)C)C(C)C)(C2)NC(=O)[C@H](CC(=O)O)NC(=O)[C@H](CC(C)C)NC1=O (single isomer, unassigned) [FP0768c, Ac-P-Q-R7-I-L-D-MC-H-V-R-R-V-W-R-NH2] | 100 to 500 nM |
| CC[C@H](C)[C@@H]1NC(=O)[C@](C)(NC(=O)[C@H](CCC(N)=O)NC(=O)[C@@H]2CCCN2C(C)=O)CCCC=CCN(C)CC[C@](C)(C(=O)N[C@@H](Cc2c[nH]cn2)C(=O)N[C@H](C(=O)N[C@@H](CCCNC(=N)N)C(=O)N[C@@H](CCCNC(=N)N)C(=O)N[C@H](C(=O)N[C@@H](Cc2c[nH]c3ccccc23)C(=O)N[C@@H](CCCNC(=N)N)C(N)=O)C(C)C)C(C)C)NC(=O)[C@H](CC(=O)O)NC(=O)[C@H](CC(C)C)NC1=O (single isomer, unassigned) [FP0776a, Ac-P-Q-R5-I-L-D-MG-H-V-R-R-V-W-R-NH2] | 500 to 5000 nM |
| CC[C@H](C)[C@@H]1NC(=O)[C@](C)(NC(=O)[C@H](CCC(N)=O)NC(=O)[C@@H]2CCCN2C(C)=O)CCCC=CCOC(=O)N(C)CC[C@](C)(C(=O)N[C@@H](Cc2c[nH]cn2)C(=O)N[C@H](C(=O)N[C@@H](CCCNC(=N)N)C(=O)N[C@@H](CCCNC(=N)N)C(=O)N[C@H](C(=O)N[C@@H](Cc2c[nH]c3ccccc23)C(=O)N[C@@H](CCCNC(=N)N)C(N)=O)C(C)C)C(C)C)NC(=O)[C@H](CC(=O)O)NC(=O)[C@H](CC(C)C)NC1=O (single isomer, unassigned) [FP0776c, Ac-P-Q-R5-I-L-D-MG-H-V-R-R-V-W-R-NH2] | 500 to 5000 nM |
| CC[C@H](C)[C@@H]1NC(=O)[C@](C)(NC(=O)[C@H](CCC(N)=O)NC(=O)[C@@H]2CCCN2C(C)=O)CCCC=CCN(C)CCC[C@](C)(C(=O)N[C@@H](Cc2c[nH]cn2)C(=O)N[C@H](C(=O)N[C@@H](CCCNC(=N)N)C(=O)N[C@@H](CCCNC(=N)N)C(=O)N[C@H](C(=O)N[C@@H](Cc2c[nH]c3ccccc23)C(=O)N[C@@H](CCCNC(=N)N)C(N)=O)C(C)C)C(C)C)NC(=O)[C@H](CC(=O)O)NC(=O)[C@H](CC(C)C)NC1=O (single isomer, unassigned) [FP0777a, Ac-P-Q-R5-I-L-D-MI-H-V-R-R-V-W-R-NH2] | 500 to 5000 nM |
| CC[C@H](C)[C@@H]1NC(=O)[C@](C)(NC(=O)[C@H](CCC(N)=O)NC(=O)[C@@H]2CCCN2C(C)=O)CCCC=CCOC(=O)N(C)CCC[C@](C)(C(=O)N[C@@H](Cc2c[nH]cn2)C(=O)N[C@H](C(=O)N[C@@H](CCCNC(=N)N)C(=O)N[C@@H](CCCNC(=N)N)C(=O)N[C@H](C(=O)N[C@@H](Cc2c[nH]c3ccccc23)C(=O)N[C@@H](CCCNC(=N)N)C(N)=O)C(C)C)C(C)C)NC(=O)[C@H](CC(=O)O)NC(=O)[C@H](CC(C)C)NC1=O (single isomer, unassigned) [FP0777c, Ac-P-Q-R5-I-L-D-MI-H-V-R-R-V-W-R-NH2] | 500 to 5000 nM |
| CC[C@H](C)[C@@H]1NC(=O)[C@@](C)(NC(=O)[C@H](CCC(N)=O)NC(=O)[C@@H]2CCCN2C(C)=O)CN(C)C(=O)OCC=CCCC[C@@](C)(C(=O)N[C@@H](Cc2c[nH]cn2)C(=O)N[C@H](C(=O)N[C@@H](CCCNC(=N)N)C(=O)N[C@@H](CCCNC(=N)N)C(=O)N[C@H](C(=O)N[C@@H](Cc2c[nH]c3ccccc23)C(=O)N[C@@H](CCCNC(=N)N)C(N)=O)C(C)C)C(C)C)NC(=O)[C@H](CC(=O)O)NC(=O)[C@H](CC(C)C)NC1=O (single isomer, unassigned) [FP0778c, Ac-P-Q-MD-I-L-D-S5-H-V-R-R-V-W-R-NH2] | 500 to 5000 nM |
